We go through one compound from patent publication US11607422B2, “Uttroside B and derivatives thereof as therapeutics for hepatocellular carcinoma” (Rajiv Gandhi Centre for Biotechnology, an Autonomous …, priority 2016, dated 2023).

Structures are written as SMILES. pIC50: −log10 of the molar value.

One assay deals with MDA-MB-231. The assay is described as follows: MTT cell viability assay in MDA-MB-231 cells. The note with it: 72 h. The class given is cell-based. As to the method: FIG. 2A is a graph comparison of IC50 of Uttroside B in a panel of cancer cells of different origin. The cancer cell lines HeLa, A375, HepG2, MDA-MB-231, HL 60, A549 and HCT116 were treated with Uttroside B as indicated, incubated for 72 h and the cell viability was assessed by MTT assay. FIG. 2B is a graph showing dose dependent effect of Uttroside B in the liver cancer cell lines and in normal immortalized hepatocytes. The liver cancer cell lines HepG2, Hep3B, SKHEP-1, Huh-7 and normal hepatocytes (Chang liver), were treated with Uttroside B incubated for 72 h and the cell viability was assessed by MTT assay. FIG. 2C is a graph comparison of IC50 of Uttroside B with sorafenib. HepG2 cells were treated with Uttroside B as indicated, incubated for 72 h, and the cell viability was assessed by MTT assay. […] The clones developed were counted and plotted as a graph. Colony containing more than four cells was counted as one clone. […]
MTT [3-(4,5-dimethylthiazole-2-yl)-2,5-diphenyltetrazolium bromide] assay is a standard colorimetric assay, suitable for analyzing proliferation, viability, and cytotoxicity. […] After overnight incubation, cells were treated with different concentrations of organic extracts (25-250 μg/ml) of S. nigrum and the isolated compound Uttroside B (250-1250 nM) for 72 h and cytotoxicity was measured. […]

For assay [1], the system named is MAPK pathway in HepG2 cells. Nature of the assay: Western blot of MAPK phosphorylation (p-JNK, p-38, p-42/44). The class given is cell-based, human. As to the method:
FIGS. 4A-4E are images showing Uttroside B inhibits MAPK and mTOR signaling, some of the crucial survival signals in liver cancer. […] HepG2 cells were treated with Uttroside B for different time intervals (0-240 min) and the whole cell lysate was resolved on a 10% gel and immunoblotted against phospho-ERK1/2 and phospho-Akt antibodies. Taxol was used as a positive control. […] HepG2 cells were treated with Uttroside B at different time intervals and the whole cell lysate was resolved on an 8% gel and immunoblotted against phospho-mTOR (2448) and phospho-mTOR (2481) antibodies.
Western blot analysis. Approximately 0.5×10^6 cells were grown on 60 mm culture plates and exposed to drugs as indicated for the desired time. The cells were then scraped out, washed in ice cold 1× PBS and pelleted down at 13000 rpm for 2 min. […]

`C[C@H](CC[C@@]1(O)O[C@H]2C[C@H]3[C@@H]4CC[C@H]5C[C@@H](O[C@@H]6O[C@H](CO)[C@H](O[C@@H]7O[C@H](CO)[C@@H](O)[C@H](O[C@@H]8OC[C@@H](O)[C@H](O)[C@H]8O)[C@H]7O[C@@H]7O[C@H](CO)[C@@H](O)[C@H](O)[C@H]7O)[C@H](O)[C@H]6O)CC[C@]5(C)[C@H]4CC[C@]3(C)[C@H]2[C@@H]1C)CO[C@@H]1O[C@H](CO)[C@@H](O)[C@H](O)[C@H]1O` [Uttroside B]: the pIC50 in the assay with MDA-MB-231 was 5.80. In assay [1], the “PMA-induced activation of p-JNK, p-38 and p-42/44” value is “down-regulated”; the “basal activation of MAPK pathway (p-42/44, p-JNK)” value is on record as “significantly down-regulated”.
